The source of these data is patent US20100056468A1, “Pyrimidine Derivatives As Anticancer Agents” (University Health Network, priority 2007, published 2010).

Like-named read-outs stand apart in the source and are kept apart here.

The target in data set [1] is Mt ODCase (Methanothermobacter thermautotrophicus, UniProt O26232). The following applies: read-out: inhibition constant (Ki), Mt ODCase; cited from earlier work.
The test system of data set [2] is CCD967. In words: WST-1 cell growth assay (Table 3). The format is cell-based. Conditions: Homo sapiens, CCD-967, 72 h; CCD967 skin fibroblast line, 3 days. As to the method: (§1) Thirteen C6 substituted nucleoside derivatives were tested against seventeen cancer cell lines in order to understand their anticancer activity potential. Cell growth was measured in 96 well plates (6 replicates per dose) in which 10^4 cells were seeded for 3 days with a range of concentrations of compound Ic and Id using the Roche WST-1 assay (Ishiyama M et al (1995) In Vitro Toxicology 8, 187-189) following manufactures directions.

For data set [3], the system named is COLO205. In words: WST-1 cell growth assay (Table 3). The following applies: Homo sapiens, COLO 205, 72 h; COLO205 colorectal adenocarcinoma, 3 days. The data set is classed as cell-based. As to the method:
as §1

The test system of data set [4] is HS578T. In words: WST-1 cell growth assay (Table 3). The following applies: Homo sapiens, Hs-578T, 72 h; HS578T breast carcinosarcoma, 3 days. The data set is classed as cell-based. As to the method:
as §1

Data set [5] relates to LOX. In words: WST-1 cell growth assay (Table 3). Conditions: Homo sapiens, 72 h; LOX melanoma, 3 days. The format is cell-based. As to the method: as §1
For data set [6], the system named is MCF7. Nature of the data set: WST-1 cell growth assay (Table 3). The data set is classed as cell-based. The following applies: Homo sapiens, 72 h; MCF7 breast adenocarcinoma, 3 days. As to the method:
as §1

Data set [7] deals with MDA-MB-468. Nature of the data set: WST-1 cell growth assay (Table 3). The following applies: Homo sapiens, 72 h; MDA-MB-468 breast adenocarcinoma, 3 days. The format is cell-based. As to the method: as §1
Data set [8] concerns OCI AML1. Nature of the data set: WST-1 cell growth assay (Table 3). The format is cell-based. The following applies: Homo sapiens, 72 h; OCI AML1 myloid leukemia, 3 days. As to the method: as §1
The subject of data set [9] is OCI AML2. Nature of the data set: WST-1 cell growth assay (Table 3). The data set is classed as cell-based. Conditions: Homo sapiens, 72 h; OCI AML2 myloid leukemia, 3 days. As to the method:
as §1

The test system of data set [10] is OCI LY7. Nature of the data set: WST-1 cell growth assay (Table 3). The format is cell-based. Conditions: Homo sapiens, 72 h; OCI LY7 B cell lymphoma, 3 days. As to the method:
as §1

Data set [11] concerns OCI MY2. In words: WST-1 cell growth assay (Table 3). The data set is classed as cell-based. The following applies: Homo sapiens, 72 h; OCI MY2 myeloma, 3 days. As to the method:
as §1

For data set [12], the system named is OVCAR4. Nature of the data set: WST-1 cell growth assay (Table 3). The data set is classed as cell-based. The following applies: Homo sapiens, OVCAR-4, 72 h; OVCAR4 ovarian adenocarcinoma, 3 days. As to the method:
as §1

Data set [13] relates to PC3. Nature of the data set: WST-1 cell growth assay (Table 3). The data set is classed as cell-based. The following applies: Homo sapiens, PC-3, 72 h; PC3 prostate adenocarcinoma, 3 days. As to the method:
as §1

For data set [14], the system named is PPC1. Nature of the data set: WST-1 cell growth assay (Table 3). The format is cell-based. The following applies: Homo sapiens, PPC-1, 72 h; PPC1 prostate, 3 days. As to the method: as §1
The test system of data set [15] is SKW3. In words: WST-1 cell growth assay (Table 3). The data set is classed as cell-based. The following applies: Homo sapiens, 72 h; SKW3 T cell leukemia, 3 days. As to the method: as §1
The subject of data set [16] is SNB19. In words: WST-1 cell growth assay (Table 3). The format is cell-based. Conditions: Homo sapiens, SNB-19, 72 h; SNB19 glioblastoma, 3 days. As to the method: as §1
Data set [17] has as its system T47D. Nature of the data set: WST-1 cell growth assay (Table 3). The format is cell-based. The following applies: Homo sapiens, 72 h; T47D breast adenocarcinoma, 3 days. As to the method: as §1
For data set [18], the system named is 70Z/3 (murine). Nature of the data set: WST-1 cell growth assay (Table 3). The format is cell-based. Conditions: Mus musculus, 72 h; 70Z/3 murine B cell leukemia, 3 days. As to the method: as §1
In a pilot study, first the in vivo effects of compound Ic in a murine tumor model (70Z/3) were studied. This murine model served to provide the baseline for toxicity data in a tumor setting. […] In this pilot study, 10^6 70Z/3 cells were injected into syngeneic mice (C57BL6×DBA/2) after which the mice were treated with compound Ic on days 2, 3, 4, 7, 8, and 9 at doses of 0.15 mg/kg or 1.5 mg/kg or with PBS. Some mice were also treated with the compound alone to test for toxic effects in the absence of tumor growth. On day 10, two mice from each group were euthanized and they were examined for the presence of disease. After 70Z/3 cells are injected they home to the spleen and proliferate causing increased spleen weight and cellularity. […] It would appear from this very small pilot study that mice can tolerate a dose of the drug which is ten times more than a dose which reduces tumor expansion in the spleen (FIG. 4 and Table 2). […]

Data set [19] deals with PBMC - Peripheral blood mononuclear cells. In words: WST-1 cell growth assay on stimulated PBMCs (Table 3). The format is cell-based, human.
Data set [20] has as its system leukemia/lymphoma and breast cancer cell lines (AML1, AML2, SKW3, OCI LY7, OCI MY2, MDA-MB-468 and MCF7). In words: WST-1 cell growth assay, summary over cell lines. The format is cell-based. The following applies: Homo sapiens, read-out: Inhibition constants (IC50s), range over cell lines. As to the method: as §1
Data set [21] deals with 70Z/3 murine acute lymphoblastic leukemia. In words: In vivo pilot study on 70Z/3 leukemic mice. As to the method:
(§2) In a pilot study, first the in vivo effects of compound Ic in a murine tumor model (70Z/3) were studied. […]. In this pilot study, 10^6 70Z/3 cells were injected into syngeneic mice (C57BL6×DBA/2) after which the mice were treated with compound Ic on days 2, 3, 4, 7, 8, and 9 at doses of 0.15 mg/kg or 1.5 mg/kg or with PBS. Some mice were also treated with the compound alone to test for toxic effects in the absence of tumor growth. On day 10, two mice from each group were euthanized and they were examined for the presence of disease. After 70Z/3 cells are injected they home to the spleen and proliferate causing increased spleen weight and cellularity. […]. Two additional mice from each group were followed for an additional 7 days during which mice in the treatment groups were treated daily.

Data set [22] is described as follows: Tolerance in NOD-SCID mice. The data set is classed as in vivo. The following applies: 0.15 mg/kg and 1.5 mg/kg. As to the method:
as §2

Data set [23] addresses ODCase. Conditions: cited from earlier work.
Data set [24] deals with mouse L1210 leukemia cells. The following applies: 25 μM, cultured mouse L1210 leukemia cells; cited from earlier work.
Where [25] appears, read: Homo sapiens, volunteer, read-out: IC50.
The mark [26] stands for this setting: healthy human PBMCs stimulated with concanavalin A and phorbol myristate acetate, read-out: inhibitory constants (IC50's).

Mt ODCase, sequence (O26232 whole entry): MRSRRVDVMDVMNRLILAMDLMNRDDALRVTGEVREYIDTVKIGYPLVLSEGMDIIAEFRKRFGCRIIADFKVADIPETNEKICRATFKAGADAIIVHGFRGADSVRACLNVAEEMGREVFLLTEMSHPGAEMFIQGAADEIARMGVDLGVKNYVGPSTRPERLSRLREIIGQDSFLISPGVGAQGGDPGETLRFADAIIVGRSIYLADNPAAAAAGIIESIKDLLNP

On to `O=c1cnn([C@@H]2O[C@H](COP(=O)(O)O)[C@@H](O)[C@H]2O)c(=O)[nH]1` [6-Aza-uridine uridine 5′-monophosphate, 6-aza-uridine 5′-monophosphate], for which, in data set [1], the inhibition constant Ki was 11 µM.

For the compound `Nc1cc(=O)[nH]c(=O)n1[C@@H]1O[C@H](CO)[C@@H](O)[C@H]1O` [Ic, 6-Amino uridine], the IC50 is > 4 µM in data set [2]; > 4 µM in [3]; > 4 µM in data set [4]; > 4 µM in [5]; 1.5 ± 0.1 µM in [6]; 3.7 ± 0.1 µM in [7]. The IC50 in data set [8] is 0.8 ± 0.1 µM; in [9] it was 0.9 ± 0.1 µM; in [10] it was 1.8 ± 0.1 µM; in data set [11], > 4 µM; in [12], > 4 µM; in data set [13], > 4 µM. The IC50 was > 4 µM in data set [14]; 0.8 ± 0.1 µM in data set [15]; > 4 µM in [16]; > 4 µM in data set [17]; 0.3 µM in data set [18]; > 10 µM in data set [19] (setting [25]). In addition, the IC50 is > 10 µM in data set [19] (setting [26]) and 0.7 to 3.5 µM in data set [20]. In addition, the disease progression result in data set [21] (followed for an additional 7 days, treated daily, untreated mice died on days 11 and 13) is “no sign of disease progression”. Moreover, in data set [21] (mice injected with 10^6 70Z/3 cells, 0.15 mg/kg or 1.5 mg/kg on days 2, 3, 4, 7, 8, 9, day 10), the “spleen weight and cellularity” value is “indistinguishable from the control mice”. Moreover, in data set [21] (mice without tumor, compound alone, day 10), the “spleen weight or cellularity, compound alone” value is listed as “did not influence spleen weight or cellularity”. Moreover, the tolerance result in data set [22] was “tolerated these doses without apparent toxicity”.

`[N-]=[N+]=Nc1cc(=O)[nH]c(=O)n1[C@@H]1O[C@H](CO)[C@@H](O)[C@H]1O` [Id, 6-Azido uridine]: the IC50 in data set [2] was > 4 µM; in data set [3], > 4 µM; in [4], > 4 µM; in [5] it was 3.8 ± 0.2 µM; in data set [6], 1 ± 0.2 µM; in [7] it was 2.5 ± 0.3 µM. In addition, the IC50 in data set [8] is 0.7 ± 0.1 µM; in data set [9] it was 0.8 ± 0.2 µM; in [10], 1 ± 0.2 µM; in data set [11], 3.8 µM; in data set [12] it was > 4 µM; in [13] it was > 4 µM. Also, the IC50 in data set [14] is > 4 µM; in data set [15], 0.7 ± 0.1 µM; in data set [16] it was > 4 µM; in data set [17] it was > 4 µM; in data set [18] it was 0.2 µM; in data set [19] (setting [25]), > 10 µM. Moreover, the figures for the IC50 in data set [19] (setting [26]) and in [20] were > 10 µM and 0.7 to 3.5 µM, respectively.

For `NC(=O)c1[nH]nc(C2OC(COP(=O)(O)O)C(O)C2O)c1O` (centres unmarked) [Pyrazofurin 5′-monophosphate], the Ki in data set [23] is 0.005 µM.

With `NC(=O)c1[nH]nc([C@@H]2O[C@H](CO)[C@@H](O)[C@H]2O)c1O` [pyrazofurin], the “accumulation of OMP” value in data set [24] is reported as “eight-fold increase”.
